{
  "source": "patent US20030139469A1",
  "about": "“Use of inhibitors of soluble epoxide hydrolase to inhibit vascular smooth muscle cell proliferation” (THE REGENTS OF THE UNIVERSITY OF CALIFORNIA, priority 2002, published 2003)",
  "key": {"human VSM cells [1]": {"system": "human VSM cells", "assay": "direct counting of trypsinized VSM cells by hemocytometer", "type": "cell-based", "settings": "12 μM, 10% serum, FIG. 1c", "method": "FIG. 1c. CDU (12 μM) or an equal volume of DMSO vehicle (as a control) was added concomitantly with 10% serum and the cells were counted by hemocytometer after trypsinization. Proliferation Assays. [^3H]thymidine incorporation assays were performed. To evaluate proliferation of suspension cells, cells were resuspended at 2×10^5 cells/mL in culture medium and the medium supplemented with the compound of interest or the corresponding vehicle. At the indicated times, cell density was estimated using light microscopy and a hemocytometer. To directly evaluate the proliferation of adherent cells, 2×10^4 cells were plated in a 35 mm culture dish and allowed to adhere overnight. The medium was then supplemented with the compound of interest or the corresponding vehicle. At the indicated times, the number of cells in the plate was calculated by subjecting the cells to trypsinization and the cell density quantitated by light microscopy using a hemocytometer."}, "[2]": {"system": "human foreskin fibroblasts", "assay": "[3H]thymidine incorporation, human foreskin fibroblasts", "type": "cell-based", "settings": "PDGF-BB stimulated, similar concentrations to VSM cells, FIG. 1d", "method": "FIG. 1d. Human foreskin fibroblasts were treated similarly to VSM cells in FIG. 1a and [^3H]thymidine incorporation into DNA was assessed."}, "HL-60 cells": {"system": "HL-60 cells", "assay": "HL-60 cell proliferation (hemocytometer count)", "type": "cell-based, human", "settings": "12 μM, 24 and 48 h, FIG. 2", "method": "Human promyelocytic HL-60 were incubated in serum-containing medium and CDU (12 μM) or DMSO vehicle was added at time zero. At 24 and 48 h after CDU addition the cells were counted using a hemocytometer. Error bars represent SD. Data shown are representative of two independent experiments. Cell Culture. Human aortic smooth muscle cells were obtained from Clonetics (San Diego Calif.) at passage 3 and were maintained in MCBD 131 media supplemented with 2.5% FBS, 5 mg/L bovine insulin, 2 ug/L human recombinant EGF, 1 ug/L human recombinant PDGF-BB (“PDGF” is platelet derived growth factor, which is composed of a dimer of two chains, the A chain and the B chain, “PDGF-BB is a 24.3 kD homodimer of two B chains), 100 u/ml of penicillin, 100 u/ml streptomycin, and 2.5 ug/ml amphotericin B. The cells were growth-arrested by placing them in quiescence medium containing MCDB 131 medium, 20 mM HEPES (pH 7.4), 5 mg/ml transferrin, 0.5 mg/ml BSA, 50 U/ml penicillin, 50 U/ml streptomycin, and 2.5 ug/ml amphotericin B. Quiescence medium was changed daily for 1-2 days before each experiment. HL-60 cells were obtained from ATCC or from D. Hyde (UC Davis). […] At the indicated times, the number of cells in the plate was calculated by subjecting the cells to trypsinization and the cell density quantitated by light microscopy using a hemocytometer."}, "Met-1 breast tumor cells": {"system": "Met-1 breast tumor cells", "assay": "Met-1 breast tumor cell proliferation", "type": "cell-based", "settings": "up to 20 μM"}, "human VSM cells [3]": {"system": "human VSM cells", "assay": "trypan blue exclusion, VSM cells", "type": "cell-based", "settings": "12 μM", "method": "(§1) Evaluation of Cell Membrane Integrity and Toxicity. To evaluate the toxicity of compounds, as indicated by cellular trypan blue permeability, cells were plated in 35 mm dishes. After two days, the medium in the dish was replaced with fresh medium supplemented with the compound of interest or vehicle. At the indicated time post-treatment, the supernatant was removed and adherent cells were removed using trypsin. After dislodging the adherent cells, the cell suspension was pooled with the supernatant and centrifuged. The resulting cell pellet was resuspended and a trypan blue solution (0.4% in normal saline) was added to the aliquot. After incubating for approximately 5 minutes, the sample was evaluated by light microscopy. To evaluate lactate dehydrogenase (LDH) release, cells were harvested and plated onto 24 well plates and serum starved for one to two days. Test compounds were added and after 65 hours, media was removed for measurement of LDH activity. LDH activity was determined by NADH oxidation using Sigma Tox-7 in vitro toxicology kit and reported as the amount of LDH activity in the media."}, "human VSM cells [4]": {"system": "human VSM cells", "assay": "LDH release into media", "type": "cell-based", "settings": "PDGF-BB or 10% serum, CDU 10 and 20 μM, FIG. 4b", "method": "as §1, with “FIG. 4b. Human VSM cells were grown continuously in the presence of either 10% serum or PDGF-BB (30 ng/ml). Upon achieving confluency, the cells were incubated with CDU at the indicated concentrations and LDH release into the media was measured as described in Example 1. Evaluation” for “Evaluation”"}, "[5]": {"system": "HTB-30 breast cancer cells", "assay": "MTT assay HTB-30", "type": "cell-based", "settings": "up to 40 μM"}, "[6]": {"system": "LnCap prostate cancer cells", "assay": "MTT assay LnCap", "type": "cell-based", "settings": "up to 40 μM"}, "cyclin D1": {"system": "cyclin D1", "assay": "Western blot cyclin D1 in VSM cells", "type": "cell-based, human", "settings": "10 μM, PDGF-BB, 6 to 18 h, vs DMSO vehicle, FIG. 7", "method": "(§2) Human VSM cells were grown to 80-90% confluence and serum-starved as in FIG. 1. […] Data shown are representative of at least two independent experiments. Western Blots. After treatment with appropriate compounds for the indicated times, cells were lysed, protein concentrations were determined by the Lowry method, and equal protein quantities were electrophoresed and Western blotted."}, "cyclin E": {"system": "cyclin E", "assay": "Western blot cyclin E in VSM cells", "type": "cell-based, human", "settings": "10 μM, PDGF-BB, 6 to 18 h, FIG. 7", "method": "as §2"}},
  "data": [
    {"compound": "CCCCCCCCCCCCNC(=O)NC1CCCCC1", "note": "[CDU, 1-cyclohexyl-3-dodecyl urea]", "values": [
      {"measurement": "cell proliferation by direct counting of trypsinized cells", "setting": "human VSM cells [1]", "result": "Inhibition of cell proliferation"},
      {"measurement": "[3H]thymidine incorporation", "setting": "[2]", "result": "inhibited"},
      {"measurement": "proliferation of HL-60 cells", "setting": "HL-60 cells", "result": "proliferated to a similar extent"},
      {"measurement": "effect on Met-1 cells", "setting": "Met-1 breast tumor cells", "result": "lack of effect"},
      {"measurement": "cells stained blue (trypan blue)", "setting": "human VSM cells [3]; 8 h", "result": 3.4, "unit": "%"},
      {"measurement": "cells stained blue (trypan blue)", "setting": "human VSM cells [3]; 24 h", "result": 3.0, "unit": "%"},
      {"measurement": "LDH appearance in the media", "setting": "human VSM cells [4]", "result": "unchanged"},
      {"measurement": "toxicity, MTT assay", "setting": "[5]", "result": "no toxicity observed"},
      {"measurement": "toxicity, MTT assay", "setting": "[6]", "result": "no toxicity observed"},
      {"measurement": "induction of cyclin D1 levels", "setting": "cyclin D1", "result": "profoundly decreased induction"},
      {"measurement": "effect on cyclin E levels", "setting": "cyclin E", "result": "minimal effect"}
    ]}
  ]
}
